The values below are quoted from earlier work in patent publication US20060246141A1, “Nanoparticulate lipase inhibitor formulations” (Elan Pharma International, Limited, priority 2005, published 2006).

Series [1] deals with gastric and pancreatic lipases. The note with it: recommended therapeutic dose of 120 mg three times a day.
The conditions of series [2]: physiological pH range.

Each structure is given as a SMILES string. Where two headings read alike, the source gives them in different places.

Take `CCCCCCCCCCCC(CC1OC(=O)[C@H]1CCCCCC)OC(=O)C(CC(C)C)NC=O` (stereo in doubt) [Orlistat, (S)-2-formylamino-4-methyl-pentanoic acid (S)-1-[[(2S, 3S)-3-hexyl-4-oxo-2-oxetanyl]methyl]-dodecyl ester]: the Solubility entry is, setting by setting: (in chloroform) “freely soluble”; (in methanol and ethanol) “very soluble”; (in water) “practically insoluble”. Besides, the “Inhibition of dietary fat absorption” value in series [1] is “approximately 30%”. Also, the pKa result in series [2] is recorded as “no pKa within the physiological pH range”.
